PubChem BioAssay (NCI)
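These data come from cells grown in 96-well plates and exposed to compound for 48 hours at five concentrations. Abbreviation: GI50, concentration required for 50% inhibition of growth. At the TGI there is no net growth.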

Tests used:
Experiment in all cases: inhibition of tumour cell growth, NCI panel, 48 h
EKVX NSCLC = system: EKVX NSCLC
HCC-2998 colon = system: HCC-2998 colon
NCI/ADR-RES ovarian = system: NCI/ADR-RES ovarian
SF-539 CNS = system: SF-539 CNS
SNB-19 CNS = system: SNB-19 CNS
UACC-62 melanoma = system: UACC-62 melanoma
HL-60(TB) leukemia = system: HL-60(TB) leukemia
HOP-92 NSCLC = system: HOP-92 NSCLC
NCI-H522 lung = system: NCI-H522 lung
OVCAR-8 ovarian = system: OVCAR-8 ovarian

Row | Structure (SMILES) | TGI (EKVX NSCLC) [µM] | TGI (HCC-2998 colon) [µM] | TGI (NCI/ADR-RES ovarian) [µM] | TGI (SF-539 CNS) [µM] | TGI (SNB-19 CNS) [µM] | TGI (UACC-62 melanoma) [µM] | TGI (HL-60(TB) leukemia) [µM] | TGI (HOP-92 NSCLC) [µM] | TGI (NCI-H522 lung) [µM] | TGI (OVCAR-8 ovarian) [µM] | GI50 (EKVX NSCLC) [µM] | GI50 (HCC-2998 colon) [µM] | GI50 (HOP-92 NSCLC) [µM] | GI50 (NCI-H522 lung) [µM] | GI50 (OVCAR-8 ovarian) [µM] | GI50 (SF-539 CNS) [µM] | GI50 (SNB-19 CNS) [µM] | GI50 (UACC-62 melanoma) [µM]
1 | CSC1(CC(=O)N2CCCCC2)C(=O)Nc2ccccc21 (centres undefined) | > 100 | > 100 | > 100 | > 100 | > 100 | > 100 |  |  |  |  |  |  |  |  |  |  |  | 
2 | c1ccc2c(CNCCCCCCCCCCCCNCc3cccc4ccccc34)cccc2c1 | 9.59 |  |  | 3 |  | 3.35 | 3.12 | 3.66 | 3.35 | 3.13 |  |  |  |  |  |  |  | 
3 | Cc1ccccc1NC(=O)c1ccc([N+](=O)[O-])cc1 | > 100 | > 100 |  | > 100 | > 100 | > 100 | > 100 | > 100 | > 100 | > 100 |  |  |  |  |  |  |  | 
4 | CCOC(=O)C(C(=O)OCC)=c1sc(=C(C(=O)OCC)C(=O)OCC)s1 | > 100 | > 100 |  |  |  | > 100 | > 100 | > 100 | > 100 | > 100 |  |  |  |  |  |  |  | 
5 | Cc1c(CC/C(=N\Nc2ccc([N+](=O)[O-])cc2[N+](=O)[O-])c2ccccc2)c2ccccc2n1C | > 100 | > 100 |  | > 100 | > 100 | > 100 | > 81.2 | > 100 | > 100 | > 100 |  |  |  |  |  |  |  | 
6 | CC(C)C1COC(c2ccc3ccccc3c2-c2c(O[Si](C)(C)C(C)(C)C)ccc3ccccc23)=N1 (centres undefined) | 35.3 | 28.9 |  | 32.4 | 29.2 | 30.9 | 33.1 | 26.6 | 29.8 | 35.3 |  |  |  |  |  |  |  | 
7 | FC(F)(F)c1nc(-c2ccccc2)oc1Sc1oc(-c2ccccc2)nc1C(F)(F)F | > 100 | > 100 |  | > 100 | > 100 | > 100 | > 100 | 94.6 | > 100 | > 100 |  |  |  |  |  |  |  | 
8 | CC(C)c1ccc2nc3ccc(C(=O)NCCN4CCN(c5ccccc5)CC4)cn3c(=O)c2c1 | > 100 | > 100 | > 100 |  | > 100 | > 100 |  |  | > 100 | > 100 |  |  |  |  |  |  |  | 
9 | CC(C)(C)C(=O)/C=C/c1cccc(Oc2ccccc2)c1 | 35.9 | 36.5 |  | 40.2 | 30 |  |  |  | 29.8 | 27.8 |  |  |  |  |  |  |  | 
10 | CC(CN)[C@@H]1CC[C@]2(CO)CC[C@]3(C)[C@H](CC[C@@H]4[C@@]5(C)CCC(N)C(C)(C)[C@@H]5CC[C@]43C)[C@@H]12 (some centres undefined) | 3.51 | 3.66 |  | 3.31 | 3.29 | 3.64 |  | 3.07 | 3.45 | 3.36 | 1.73 | 1.89 | 1.45 | 1.81 | 1.92 | 1.72 | 1.79 | 1.92
11 | COC(=O)[C@@]12C=CC(=O)[C@H]3C[C@@H](C(C(C)C)C1)[C@]32OC (some centres undefined) | > 100 | > 100 |  | > 100 | > 100 | > 100 | > 100 | > 100 |  | > 100 |  |  |  |  |  |  |  | 
12 | COc1ccc(C2C3=C(COC3=O)Oc3cc4c(cc32)OCO4)cc1 (centres undefined) | > 100 |  |  | 56.6 | > 100 | > 100 | 25 | 68.1 |  | > 100 |  |  |  |  |  |  |  | 
13 | O=C(C=Nc1ccccc1C(=O)[O-])c1cccs1.O=C(C=Nc1ccccc1C(=O)[O-])c1cccs1.[Zn+2] |  | > 10 |  | > 100 | > 100 | 42 | > 100 | 64 | 47.9 | > 100 |  |  |  |  |  |  |  | 
14 | FC(F)(F)c1cccc(C2SCc3nc4ccccc4n32)c1 (centres undefined) | > 100 | > 100 |  | > 100 | > 100 | > 100 | > 100 | 32.2 | > 100 | > 100 |  |  |  |  |  |  |  | 
15 | COC1CC(OC)C(O)C(CO)O1 (centres undefined) | > 100 | > 100 |  | > 100 |  | > 100 | > 100 |  | > 100 | > 100 |  |  |  |  |  |  |  | 
16 | CCCCCCCCCCCCCCCCCC[N+](C)(C)Cc1ccc(C[N+](C)(C)CCCCCCCCCCCCCCCCCC)cc1 | 43.1 | 93.7 |  |  | 76.1 | 47.6 |  | 24.8 | > 100 | 30.5 |  |  |  |  |  |  |  | 
17 | Cc1ccc(NC(=O)CC2C(=O)Nc3ccccc3S2=O)c(C)c1 (centres undefined) | > 100 | > 72.6 |  | 26.3 | 30.8 | 42.4 | 11 | 29.8 | 22 | 34.1 |  |  |  |  |  |  |  | 
18 | Nc1nc(=Nc2ccccc2)ss1 | > 100 | > 100 |  | > 100 | > 100 | > 100 | 60.2 | > 100 | > 100 | > 100 |  |  |  |  |  |  |  | 
